molecular target: interaction of human SOS1 (SOS1) with human K-RasG12C (Homo sapiens (Human), UniProt Q07889); assay: Biochemical assay: hK-RasG12C interaction assay with hSOS1 (HTRF); assay type: binding; details: GST-hK-RasG12C with His-hSOS1, 60 min incubation at 20° C., mean, read-out: K-RasG12C - SOS interaction assay IC50 (mean)
Outline: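 Compounds, duplicates at 11 concentrations from 0.073 nM to 20 µM, were preincubated 2 min with 10 nM GST-hK-RasG12C, then 20 nM His-hSOS1 was added, all at 20 °C. After 60 min, 665/620 nm HTRF ratio normalized to DMSO and SOS1-free controls; IC50 by 4-parameter fit.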

Sequence of interaction of human SOS1 (SOS1) with human K-RasG12C (Q07889 564-1049 limits assumed): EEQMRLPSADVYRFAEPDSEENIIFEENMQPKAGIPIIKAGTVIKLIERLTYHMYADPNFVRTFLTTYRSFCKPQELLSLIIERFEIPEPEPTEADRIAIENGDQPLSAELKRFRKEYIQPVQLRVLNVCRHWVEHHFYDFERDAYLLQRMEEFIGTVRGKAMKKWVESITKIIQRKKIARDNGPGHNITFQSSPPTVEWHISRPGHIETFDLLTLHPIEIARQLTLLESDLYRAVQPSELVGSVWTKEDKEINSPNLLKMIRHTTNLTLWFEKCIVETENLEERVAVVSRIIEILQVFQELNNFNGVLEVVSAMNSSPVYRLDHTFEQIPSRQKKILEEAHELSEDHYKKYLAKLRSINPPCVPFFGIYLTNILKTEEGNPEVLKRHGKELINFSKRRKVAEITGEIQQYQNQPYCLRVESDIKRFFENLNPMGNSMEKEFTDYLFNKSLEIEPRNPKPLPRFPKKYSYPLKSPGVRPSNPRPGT

SMILES	IC50
Cc1nc(N[C@H](C)c2cccc(C(F)(F)CO)c2F)c2cc(P3(=O)CC=CC3)ncc2n1 [Example 59, 1-[4-{{(1R)-1-[3-(1,1-difluoro-2-hydroxyethyl)-2-fluorophenyl]ethyl}amino)-2-methylpyrido[3,4-d]pyrimidin-6-yl]-2,5-dihydro-1H-1lambda^5-phosphol-1-one]	0.00706 µM
Cc1nc(N[C@H](C)c2cccc(C(F)(F)CO)c2F)c2cc(P(C)(C)=O)ncc2n1 [Example 62, 2-{3-[(1R)-1-{[6-(dimethylphosphoryl)-2-methylpyrido[3,4-d]pyrimidin-4-yl]amino}ethyl]-2-fluorophenyl}-2,2-difluoroethan-1-ol]	0.0135 µM
Cc1nc(N[C@H](C)c2cccc(C(F)(F)CO)c2F)c2cc(P3(=O)CCCC3)ncc2n1 [Example 63, 1-[4-{{(1R)-1-[3-(1,1-difluoro-2-hydroxyethyl)-2-fluorophenyl]ethyl}amino)-2-methylpyrido[3,4-d]pyrimidin-6-yl]-1lambda^5-phospholan-1-one]	0.0101 µM
CCP(=O)(CC)c1cc2c(N[C@H](C)c3cccc(C(F)(F)CO)c3F)nc(C)nc2cn1 [Example 64, 2-{3-[(1R)-1-{[6-(diethylphosphoryl)-2-methylpyrido[3,4-d]pyrimidin-4-yl]amino}ethyl]-2-fluorophenyl}-2,2-difluoroethan-1-ol]	0.0178 µM
Cc1nc(N[C@H](C)c2cccc(C(F)(F)C(C)(C)O)c2F)c2cc(P(C)(=O)C(C)C)ncc2n1 (stereo partly drawn) [Example 70, 1,1-difluoro-1-{2-fluoro-3-[(1R)-1-({2-methyl-6-[methyl(propan-2-yl)phosphoryl]pyrido[3,4-d]pyrimidin-4-yl}amino)ethyl]phenyl}-2-methylpropan-2-ol]	0.0276 µM
Cc1nc(N[C@H](C)c2cccc(C(F)(F)C(C)(C)O)c2F)c2cc(P3(=O)CC=CC3)ncc2n1 [Example 85, 1-[4-({(1R)-1-[3-(1,1-difluoro-2-hydroxy-2-methylpropyl)-2-fluorophenyl]ethyl}amino)-2-methylpyrido[3,4-d]pyrimidin-6-yl]-2,5-dihydro-1H-1lambda^5-phosphol-1-one]	0.012 µM

Further molecules by falling IC50, results first:

IC50	SMILES
0.286 µM	Cc1nc(N[C@H](C)c2cccc(C(F)(F)F)c2C)c2cc(P3(=O)CCN(C(=O)OC(C)(C)C)CC3)nc(C)c2n1 [Example 91, tert-butyl 4-[2,8-dimethyl-4-({(1R)-1-[2-methyl-3-(trifluoromethyl)phenyl]ethyl}amino)pyrido[3,4-d]pyrimidin-6-yl]-4-oxo-1,4lambda^5-azaphosphinane-1-carboxylate]
0.0772 µM	CCP(=O)(CC)c1cc2c(N[C@H](C)c3cccc(C(F)F)c3F)nc(C)nc2cn1 [Example 92, 6-(diethylphosphoryl)-N-{(1R)-1-[3-(difluoromethyl)-2-fluorophenyl]ethyl}-2-methylpyrido[3,4-d]pyrimidin-4-amine]
0.0669 µM	CCP(C)(=O)c1cc2c(N[C@H](C)c3cccc(C(F)(F)C(C)(C)O)c3F)nc(C)nc2cn1 (stereo partly drawn) [Example 67, 1-{3-[(1R)-1-{{6-[ethyl(methyl)phosphoryl]-2-methylpyrido[3,4-d]pyrimidin-4-yl}amino)ethyl]-2-fluorophenyl}-1,1-difluoro-2-methylpropan-2-ol]
0.0135 µM	[2H]C([2H])(O)C(F)(F)c1cccc([C@@H](C)Nc2nc(C)nc3cnc(P(C)(C)=O)cc23)c1F [Example 60, 2-{3-[(1R)-1-{[6-(dimethylphosphoryl)-2-methylpyrido[3,4-d]pyrimidin-4-yl]amino}ethyl]-2-fluorophenyl}-2,2-difluoro(^2H2)ethan-1-ol]
0.00982 µM	[2H]C([2H])(O)C(F)(F)c1cccc([C@@H](C)Nc2nc(C)nc3cnc(P4(=O)CCCC4)cc23)c1F [Example 61, 1-(4-{[(1R)-1-{3-[1,1-difluoro-2-hydroxy(^2H2)ethyl]-2-fluorophenyl}ethyl]amino}-2-methylpyrido[3,4-d]pyrimidin-6-yl)-1lambda^5-phospholan-1-one]

Source: US20240247015A1, “PHOSPHORUS DERIVATIVES AS NOVEL SOS1 INHIBITORS” (BAYER AKTIENGESELLSCHAFT, priority 2021, published 2024)
